In assay [1] the test system is cardiomyocytes. The experiment in a line: TUNEL assay on hearts after coronary ligation. The settings on record: 24 h after ligation. It is filed as in vivo, mouse. The source says: (§1) Animals and Surgical procedures. Mice: Myocardial infarctions were produced in seventy C57BL/6J male mice at 16 weeks of age (25-30 g) by ligation of the left anterior descending (LAD) coronary artery as described (Garner et al., 2003). All animal protocols were reviewed and approved by the University of Texas Southwestern Medical School Institutional Animal Care Advisory Committee and were in compliance with the rules governing animal use as published by the NIH. Mice were sedated in an isoflurane chamber (5%) for 60 seconds until self-designed coaxial mask could be safely applied. The mask supplied continuous isoflurane (2.0%) and oxygen (98.0%) under positive pressure from a Harvard small animal respirator throughout the procedures. […] Effective doses of the peptides were calculated based on optimal in vitro cell migration effect and on biodistribution calculations of full length TB4 (Mora et al., 1997). […]
Immunohistochemistry. Adult mouse cardiac tissue was fixed in 4% paraformaldehyde and sections were analyzed by immunohistochemistry. […] Number of sm a-actin positive capillaries and Wt-1 positive cells were counted at the infarction border zone in high power photographs at all levels of the sections in three peptide, TB4 and PBS treated hearts respectively.

Assay [2] has as its system adult infarcted pigs. Description: Ischemia reperfusion (acute myocardial infarction) in pigs with retroinfusion of peptides. The format is in vivo, pig. The protocol: Pigs: German pigs were purchased from the animal research department of the Ludwig-Maximilians-University (Oberschleissheim, Germany). Animal care and all experimental procedures were performed in accordance to the German and NIH animal legislation guidelines and were approved by the Bavarian Animal Care and Use Committee (AZ 55.2-1-54-2531-26/09). All animal experiments were conducted at the Walter Brendel Centre of Experimental Medicine, University of Munich.
Ischemia reperfusion experiments: Pigs (n=5/experimental group) were anesthetized and instrumented as described previously (Hinkel et al., 2008). Briefly, a balloon was placed in the left anterior descending artery (LAD) distal to the bifurcation of the first diagonal branch and inflated for 60 min. Correct localization of the coronary occlusion and patency of the first diagonal branch were ensured by injection fluoroscopy. Regional application of TB4 peptides or saline solution was performed via selective pressure regulated retroinfusion for 10 min into the anterior interventricular vein (AIV) draining the LAD-perfused myocardium (Kupatt et al., 2005).
Global myocardial function: At day 0 before ischemia induction and after 24 h of reperfusion myocardial function was obtained via Millar pressure tip catheter. Therefore the Millar pressure tip catheter was placed in the left ventricle and left ventricular pressure was recorded for off-line analysis.
Regional myocardial function: 24 hours after induction of ischemia, sternotomy was performed and ultrasonic crystals were placed subendocardial into the area at risk, the infracted area as well as into the Cx perfusion area in a standardized manner. Subendocardial segment shortening (SES) was assessed under resting heart rate as well as at 120 and 150 beats/min atrial pacing (for 1 min/each).
Infarct size and local inflammation: For assessment of infarct size methylene blue was injected in the left ventricle for negative staining of the AAR and tetrazolium red was applied into the LAD for viability staining in the infracted area. Thereafter, left ventricle was cut into slices (5 mm thick), and subjected to digital photography. Planimetry of different slices was conducted via ImageJ for assessment of infarct size in % of AAR. Tissue samples from infarct, area at risk and non-ischemic control were harvested for leukocyte recruitment. Myeloperoxidase assays were performed as previously described (Kupatt et al., 2005).

For assay [3], the system named is Connexin43. The experiment in a line: Connexin43 expression (Western blot) and localization (immunohistology) in infarcted hearts. It is filed as in vivo, mouse.
Excerpt: as §1, with “applied.” for “applied. The mask supplied continuous isoflurane (2.0%) and oxygen (98.0%) under positive pressure from a Harvard small animal respirator throughout the procedures.”
Western blot. […] The protein fraction was isolated from the interphase of the Trizol purification as recommended by the manufacturer; 10 μg of the total protein was loaded and analyzed by Western blot with protein-specific primary antibodies: VEGF, p-Marcks, p-Akt, and GAPDH (1:100) (Santa Cruz), Connexin43 (1:50) (Invitrogen), N-Cadherin (1:5000) (BD Biosciences) and pS368-Connexin43 (1:1000) (Cell Signaling Technology).
Immunohistochemistry. Adult mouse cardiac tissue was fixed in 4% paraformaldehyde and sections were analyzed by immunohistochemistry. […]

Entries after “also recorded” stand apart in the source; their conditions may differ.

For the substance Thymosin β4 [TB4], the “TUNEL positive cardiomyocytes (myocardial cell death)” value in assay [1] was “significant decrease of myocardial cell death”. The “left ventricular end-diastolic pressure” value in assay [2] (after ischemia and 24 h reperfusion) is listed as 10.4+/−0.8 mmHg. The “regional myocardial function in the infarcted area” value in assay [2] (at rest and under increased heart rate (atrial pacing)) was “significantly improved”. Further, in assay [2] (in % of AAR, 60 min occlusion, retroinfusion at onset of reperfusion, n=5), the infarct size is on record as 35+/−3%. The “post-ischemic inflammatory leukocyte influx (myeloperoxidase activity)” value in assay [2] (ischemic heart tissue after retroinfusion) is on record as “reduced post-ischemic inflammatory leukocyte influx”. Moreover, the Cx43 localization result in assay [3] (border zone of cardiac infarction) is recorded as “stayed primarily at the intercalated discs; also recorded: mainly localized to the intercalated discs”. The Cx43 expression entry in assay [3] (infarcted cores, 21 days after infarction) is “significant increase in Cx43 expression; also recorded: significant increase in Cx43 level”.

Source of the values: patent US20110251128A1, “THYMOSIN Beta4 PEPTIDES PROMOTE TISSUE REGENERATION” (The Board of Regents of the University of Texas System, priority 2010, published 2011).
